From US20070141707A1, “Sponge toxins” (priority 2003, published 2007)

Tests used:
[1] = read-out: KD for zinc; cited from earlier work
HEK293 cells = experiment: fura-2 intracellular Ca2+ imaging in HEK293 cells; type: cell-based, human; details: poly-APS 0.5 μg/ml, n=11
Protocol: HEK293 cells (human embryonic kidney cell line) were maintained in Dulbecco's modified Eagle's medium (DMEM). In preparation for transfection experiments cells were seeded 24 hours prior to experimentation at a density of 5×10^5 cells per well in six well plates, the same seeding density was used for confocal and electrophysiology/calcium imaging experiments in 35 mm culture dishes.
Cultured DRG neurones and HEK 293 cells were incubated for 1 hour in NaCl-based extracellular solution containing 10 μM fura-2AM (Sigma, 1 mM stock in dimethylformamide). The cells were then washed for 20 minutes to remove the extracellular fura-2AM and to allow cytoplasmic de-esterification of the Ca^2+ sensitive fluorescent dye. The cells were constantly perfused (1-2 ml/min) and viewed under an inverted Olympus BX50W1 microscope with a KAI-1001 S/N 5B7890-4201 Olympus camera attached. The fluorescence ratiometric images from the data obtained at excitation wavelengths of 340 nm and 380 nm were viewed and analysed using OraCal pro, Merlin morphometry temporal mode (Life Sciences resources, version 1.20).

cultured DRG neurones [2] = experiment: Voltage clamp recording of poly-APS evoked inward/holding current in DRG neurones; type: cell-based, rat; details: 1.5 mM zinc continually present, before poly-APS, n=6
Protocol: (§1) Primary cultures of dorsal root ganglion (DRG) neurones were prepared following enzymatic and mechanical dissociation of dorsal root ganglia from decapitated 2-day old Sprague Dawley rats. The sensory neurones were plated on laminin-polyornithine coated coverslips and bathed in F14 culture medium (Imperial Laboratories) supplemented with 10% horse serum (Gibco), penicillin (5000 IU/ml), streptomycin ([…]), NaHCO3 (14 mM) and nerve growth factor (20 ng/ml). The cultures were maintained for up to 2 weeks at 37° C. in humidified air with 5% CO2, and re-fed with fresh culture medium every 5-7 days.
(§2) All experiments were conducted at room temperature (approximately 23° C.). The whole-cell recording technique was used to study the actions of poly-APS and halitoxin preparations on membrane potential, input resistance (evaluated from 100-300 ms electrotonic potentials evoked by −30 to −200 pA current commands) and holding current. Whole cell recordings were made using an Axoclamp-2A switching voltage clamp amplifier operated at a sampling rate of 15-20 kHz. […] Poly-APS and halitoxin were applied to the extracellular environment by low pressure ejection via a blunt micropipette (tip diameter about […]) positioned approximately […] from the neurone being recorded. […]

cultured DRG neurones [3] = experiment: Whole-cell recording of membrane potential and input resistance in cultured DRG neurones; type: cell-based, rat; details: 1.5 mM zinc, before poly-APS, n=7
Protocol: as §1
as §2, with “current.” for “current. Whole cell recordings were made using an Axoclamp-2A switching voltage clamp amplifier operated at a sampling rate of 15-20 kHz.”
The electrophysiological data were stored on digital audio tape (DAT) using a DTR-1200 DAT recorder (Biologic) and subsequently analysed using Cambridge Electronic Design voltage clamp software (version 6). […]

| SMILES | Kd [1] | effect of zinc on rise in intracellular Ca2+ produced by poly-APS (HEK293 cells) | resting holding current at −90 mV with zinc (cultured DRG neurones [2]) | resting membrane potential in the presence of zinc (cultured DRG neurones [3]) |
| --- | --- | --- | --- | --- |
| Cc1ccc(N(CC(=O)O)CC(=O)O)c(OCCOc2cc3cc(-c4ncc(C(=O)O)o4)oc3cc2N(CC(=O)O)CC(=O)O)c1 [fura-2] | ~2 nM |  |  |  |
| [Zn+2] [zinc] |  | attenuated | −120±30 pA | −47±7 mV |
